Experimental data published in patent US10039729B2, “Use of kukoamine A and kukoamine B” (Tianjin Chase Sun Pharmaceutical Co., Ltd., priority 2010, dated 2018).

How the values were obtained:
NF-κB = NF-κB activation in RAW264.7 cells (ELISA of nuclear p50/p65, luciferase reporter gene assay); type: cell-based, murine; conditions: KB 200 μM
Method: […]
Detection of NF-κB activation using ELISA: Each well was added with 30 μl binding solution (3.2 μl DTT and 16.2 μl Herring sperm DNA were diluted in 1.6 ml binding solutions); each sample well was added with 20 μl sample ([…]); positive control wells was added with 20 μl p50; blank control wells were added with 20 μl dissolution buffer (0.9 μl 1M DTT and 1.8 μl protease inhibitors was diluted in 177.3 μl dissolution buffer AM2); the microtiter plate was shaken for 30 seconds for completely mixing, incubated at room temperature for 1 h, and then washed thrice with 200 μl 1×wash solution (450 μl 10×wash solution were diluted in 4.05 ml ddH2O) and gentle shaking for 5 min each time; each well was added with 100 μl NF-κB antibody (1:1000), incubated for 1 h, then washed thrice with 200 μl 1×wash solution and gentle shaking for 5 min each time; each well was added with 100 μl HRP antibody (1:1000), incubated for 1 h, then washed four times with 200 μl 1×wash solution and gentle shaken for 5 min each time; each well was added with 100 μl detection reagent, incubated for 5 min away from light, and then added with 100 μl stop solution; the absorbance value at 450 nm of each well was detected. […]

[1] = Major organ pathological morphous of mice after KB injection; type: in vivo, Kunming mice; conditions: KB 60 mg/kg single dose; 24, 48 and 72 h
Method: 30.1 Methods: A total of 16 Kunming mice were randomly divided into four groups; each group has 4 mice, half male and half female; for the purpose of experiment a medium group and a KB (60 mg/kg) treatment group were established; mice in medium group were immediately killed by cervical dislocation, and KB treatment group were killed separately killed at 24, 48 and 72 h after injection; the cavitas thoracis and abdominal cavity of mice were cut open; organs such as heart, liver, lung, kidney and intestine were moved out, rinsed with sterile saline, plunged into 10% formaldehyde solution for fixing, dehydrated, embedded in paraffin, HE dyed and mounted; organ histopathological changes were observed under a light microscope.

NCCCN(CCCCNCCCNC(=O)CCc1ccc(O)c(O)c1)C(=O)CCc1ccc(O)c(O)c1 [KB, Kukoamine B]
increase of p50 and p65 levels in nuclear proteins induced by LPS and CpG DNA (NF-κB; 2 h, ELISA): significantly inhibited
NF-κB activation induced by LPS and CpG DNA (luciferase reporter gene assay) (NF-κB; 6 h): inhibit NF-κB activation
cardiac muscle histopathology [1]: no cell necrosis and inflammatory cell infiltration
changes in major organs of mice [1]: no significant changes in major organs
kidney histopathology [1]: normal morphology and no obvious changes
liver histopathology [1]: no pathological changes such as cellular swelling and necrosis
lung histopathology [1]: no congestion and inflammatory cell infiltration
